# Paper PMC5206724, “Insensitivity to pain induced by a potent selective closed-state Nav1.7 inhibitor” (Scientific Reports, 2017)
# Like-named read-outs stand apart in the source and are kept apart here.
# Experiments:
# hNav1.2 [1] = molecular target: T1, hNav1.2 (Homo sapiens, UniProt Q99250); test: cell-based; conditions: manual patch clamp; read-out: Fitted Emax hNav1.2
# hNav1.7 [2] = molecular target: T2, hNav1.7 (Homo sapiens, UniProt Q15858); test: cell-based; conditions: QPatch; read-out: Fitted Emax hNav1.7
# T2 construct: host or cells: HEK293
# [3] = for maximum tolerated dose (MTD), IT: intrathecal; for lesions to the face and shoulders: rats; for abnormal proprioception of hind paws / abnormal stepping / flaccidity / hindlimb weakness: baseline 0/7
# hNav1.4 [4] = molecular target: T3, hNav1.4 (Homo sapiens, UniProt P35499); test: cell-based; conditions: manual patch clamp; read-out: Fitted Emax hNav1.4
# [5] = for mentation BAR (bright, alert and responsive) / normal corneal reflex / normal pinna reflex / normal placing stepping / scratching: 1.4 mg/100 μl perineural
# Description: Rats ~250–300 g were placed under Isoflurane anesthesia (4% for induction, 2% for maintenance). A single hip and proximal hind-leg area were shaved and the injection area prepped with alternating applications of chlorhexidine 2% soln. and isopropyl alcohol 70%. A pelvic notch just distal to the greater trochanter was located with palpation and a starter hole was made through the dermis using a 20G hypodermic needle. A 22G nerve stimulating injection needle (ProBloc II, cat#HN3S-40, Halyard Health) connected to a peripheral nerve stimulation device (EZstim II model ES400, Life-Tech, Inc.) was placed into the starter hole. The nerve stimulator was set to 0.7 mA and the injection needle was gently advanced in a line parallel to the femur until localized dorsal or plantar flexion of the foot was observed. Generalized muscle twitching involving primary twitching on the quadriceps muscle was considered a negative response and the needle was carefully re-positioned until the appropriate localized foot flicking was observed. […] The device was increased back to 0.2 mA and if twitching was still observed, the 100 μL injection was given.
# hNav1.1 [6] = molecular target: T4, hNav1.1 (Homo sapiens, UniProt P35498); test: cell-based; conditions: QPatch; read-out: Fitted Emax hNav1.1
# hNav1.6 [7] = molecular target: T5, hNav1.6 (Homo sapiens, UniProt Q9UQD0); test: cell-based; conditions: manual patch clamp
# [8] = 0.5 μg/h IT infusion; in words
# Experimental: Efficacy was assessed in the hotplate and tail flick tests at various time points before pump implantation, during infusion and after discharge of the pumps.
# All peptides were formulated in DPBS (no Ca^2+ and Mg^2+) and stored at 4 °C until use. For bolus administration, 10 μl of compound solution or vehicle were injected via the IT catheter followed by 10 μl saline flush. […] The osmotic pump was implanted subcutaneously above the scapula. Animals were excluded from behavioral studies if any motor dysfunction was noted following IT injection, if baseline thresholds were >90% or <10% of the cut-off value in the tail flick, hotplate and Hargreaves test, if there was significant leak (>20 μl) while injecting formalin into the paw or any malfunction of the metal bands or formalin apparatus. Intrathecal compound was administered 15 min–1 h before commencing behavioral testing. Intrathecal-cannulated rats were trained on the behavioral apparatus for at least two days before baseline withdrawal latencies were taken. All behavioral tests were conducted by an investigator blinded to group and treatment.
# hNav1.4 [9] = molecular target: T3, hNav1.4; test: cell-based; conditions: QPatch; read-out: Fitted Emax hNav1.4
# hNav1.6 [10] = molecular target: T5, hNav1.6; test: cell-based; conditions: QPatch; for Emax: read-out: Fitted Emax hNav1.6
# hNav1.1 [11] = molecular target: T4, hNav1.1; test: cell-based; conditions: manual patch clamp
# hNav1.2 [12] = molecular target: T1, hNav1.2; test: cell-based; conditions: QPatch; read-out: Fitted Emax hNav1.2
# hNav1.7 [13] = molecular target: T2, hNav1.7; test: cell-based; conditions: manual patch clamp; read-out: Fitted Emax hNav1.7
# hNav1.5 = hNav1.5 (Homo sapiens, UniProt Q14524); test: cell-based; conditions: QPatch; read-out: Fitted Emax hNav1.5
# hNav1.3 = hNav1.3 (Homo sapiens, UniProt Q9NY46); test: cell-based; conditions: QPatch; read-out: Fitted Emax hNav1.3
# [14] = 0.5 μg/10 μl IT, 2 h post dose (1 h post formalin)
# [15] = 2.5 μg/10 μl IT, 2 h post dose (1 h post formalin)
# [16] = 2.5 μg/10 μl IT, first 2 animals not assessed
# [17] = 2 μg/10 μl IT, 30 min post dosing
# [18] = 2 μg/10 μl IT, 90 min post dosing
# [19] = 2 μg/10 μl IT, formalin study, in words
# T3 sequence (P35499 whole entry): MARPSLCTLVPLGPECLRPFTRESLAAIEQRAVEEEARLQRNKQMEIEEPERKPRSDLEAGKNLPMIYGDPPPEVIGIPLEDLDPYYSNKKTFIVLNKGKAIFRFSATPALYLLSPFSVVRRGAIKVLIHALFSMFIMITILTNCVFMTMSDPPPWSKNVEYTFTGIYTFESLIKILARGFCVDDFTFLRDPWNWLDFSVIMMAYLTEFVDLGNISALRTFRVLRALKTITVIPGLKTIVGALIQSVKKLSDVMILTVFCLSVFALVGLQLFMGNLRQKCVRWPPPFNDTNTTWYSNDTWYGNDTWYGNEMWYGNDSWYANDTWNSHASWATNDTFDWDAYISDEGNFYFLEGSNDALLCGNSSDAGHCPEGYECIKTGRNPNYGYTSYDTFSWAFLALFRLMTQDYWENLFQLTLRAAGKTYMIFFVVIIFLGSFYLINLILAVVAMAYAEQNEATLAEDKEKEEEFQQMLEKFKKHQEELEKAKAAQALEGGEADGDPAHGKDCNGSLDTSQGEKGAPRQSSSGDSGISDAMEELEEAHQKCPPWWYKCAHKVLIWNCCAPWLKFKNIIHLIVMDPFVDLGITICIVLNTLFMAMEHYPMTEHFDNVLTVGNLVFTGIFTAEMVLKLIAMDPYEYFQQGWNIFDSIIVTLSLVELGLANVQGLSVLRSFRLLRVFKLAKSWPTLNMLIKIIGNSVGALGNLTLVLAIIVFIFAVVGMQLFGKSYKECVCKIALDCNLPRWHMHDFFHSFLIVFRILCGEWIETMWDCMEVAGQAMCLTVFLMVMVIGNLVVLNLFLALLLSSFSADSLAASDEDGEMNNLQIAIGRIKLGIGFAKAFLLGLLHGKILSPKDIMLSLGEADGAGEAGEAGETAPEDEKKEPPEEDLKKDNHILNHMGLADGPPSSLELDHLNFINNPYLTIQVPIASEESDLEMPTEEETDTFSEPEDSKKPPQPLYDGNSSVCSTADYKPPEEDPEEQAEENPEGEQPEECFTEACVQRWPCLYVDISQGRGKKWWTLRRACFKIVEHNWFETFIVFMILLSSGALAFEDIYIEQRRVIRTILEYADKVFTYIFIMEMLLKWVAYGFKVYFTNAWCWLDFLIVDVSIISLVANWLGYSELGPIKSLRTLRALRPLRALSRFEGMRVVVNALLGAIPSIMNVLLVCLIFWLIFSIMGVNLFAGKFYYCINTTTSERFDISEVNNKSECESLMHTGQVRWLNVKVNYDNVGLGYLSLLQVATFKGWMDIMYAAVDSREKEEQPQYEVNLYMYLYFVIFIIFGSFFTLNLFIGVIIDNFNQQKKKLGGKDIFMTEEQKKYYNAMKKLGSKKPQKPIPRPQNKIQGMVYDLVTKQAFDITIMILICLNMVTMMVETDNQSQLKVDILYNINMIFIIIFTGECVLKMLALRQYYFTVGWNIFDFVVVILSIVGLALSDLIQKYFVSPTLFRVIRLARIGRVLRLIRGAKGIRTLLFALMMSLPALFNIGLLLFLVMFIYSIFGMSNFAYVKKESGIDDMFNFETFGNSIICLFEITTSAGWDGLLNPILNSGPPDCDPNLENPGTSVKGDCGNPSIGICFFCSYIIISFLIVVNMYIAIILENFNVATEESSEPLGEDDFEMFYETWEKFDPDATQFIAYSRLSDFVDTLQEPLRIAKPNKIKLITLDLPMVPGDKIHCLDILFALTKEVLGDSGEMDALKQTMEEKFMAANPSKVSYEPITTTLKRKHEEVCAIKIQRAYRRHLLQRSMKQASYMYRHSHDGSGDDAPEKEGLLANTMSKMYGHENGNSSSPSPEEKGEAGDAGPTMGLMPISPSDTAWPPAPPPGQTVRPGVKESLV
# T1 sequence (Q99250 whole entry): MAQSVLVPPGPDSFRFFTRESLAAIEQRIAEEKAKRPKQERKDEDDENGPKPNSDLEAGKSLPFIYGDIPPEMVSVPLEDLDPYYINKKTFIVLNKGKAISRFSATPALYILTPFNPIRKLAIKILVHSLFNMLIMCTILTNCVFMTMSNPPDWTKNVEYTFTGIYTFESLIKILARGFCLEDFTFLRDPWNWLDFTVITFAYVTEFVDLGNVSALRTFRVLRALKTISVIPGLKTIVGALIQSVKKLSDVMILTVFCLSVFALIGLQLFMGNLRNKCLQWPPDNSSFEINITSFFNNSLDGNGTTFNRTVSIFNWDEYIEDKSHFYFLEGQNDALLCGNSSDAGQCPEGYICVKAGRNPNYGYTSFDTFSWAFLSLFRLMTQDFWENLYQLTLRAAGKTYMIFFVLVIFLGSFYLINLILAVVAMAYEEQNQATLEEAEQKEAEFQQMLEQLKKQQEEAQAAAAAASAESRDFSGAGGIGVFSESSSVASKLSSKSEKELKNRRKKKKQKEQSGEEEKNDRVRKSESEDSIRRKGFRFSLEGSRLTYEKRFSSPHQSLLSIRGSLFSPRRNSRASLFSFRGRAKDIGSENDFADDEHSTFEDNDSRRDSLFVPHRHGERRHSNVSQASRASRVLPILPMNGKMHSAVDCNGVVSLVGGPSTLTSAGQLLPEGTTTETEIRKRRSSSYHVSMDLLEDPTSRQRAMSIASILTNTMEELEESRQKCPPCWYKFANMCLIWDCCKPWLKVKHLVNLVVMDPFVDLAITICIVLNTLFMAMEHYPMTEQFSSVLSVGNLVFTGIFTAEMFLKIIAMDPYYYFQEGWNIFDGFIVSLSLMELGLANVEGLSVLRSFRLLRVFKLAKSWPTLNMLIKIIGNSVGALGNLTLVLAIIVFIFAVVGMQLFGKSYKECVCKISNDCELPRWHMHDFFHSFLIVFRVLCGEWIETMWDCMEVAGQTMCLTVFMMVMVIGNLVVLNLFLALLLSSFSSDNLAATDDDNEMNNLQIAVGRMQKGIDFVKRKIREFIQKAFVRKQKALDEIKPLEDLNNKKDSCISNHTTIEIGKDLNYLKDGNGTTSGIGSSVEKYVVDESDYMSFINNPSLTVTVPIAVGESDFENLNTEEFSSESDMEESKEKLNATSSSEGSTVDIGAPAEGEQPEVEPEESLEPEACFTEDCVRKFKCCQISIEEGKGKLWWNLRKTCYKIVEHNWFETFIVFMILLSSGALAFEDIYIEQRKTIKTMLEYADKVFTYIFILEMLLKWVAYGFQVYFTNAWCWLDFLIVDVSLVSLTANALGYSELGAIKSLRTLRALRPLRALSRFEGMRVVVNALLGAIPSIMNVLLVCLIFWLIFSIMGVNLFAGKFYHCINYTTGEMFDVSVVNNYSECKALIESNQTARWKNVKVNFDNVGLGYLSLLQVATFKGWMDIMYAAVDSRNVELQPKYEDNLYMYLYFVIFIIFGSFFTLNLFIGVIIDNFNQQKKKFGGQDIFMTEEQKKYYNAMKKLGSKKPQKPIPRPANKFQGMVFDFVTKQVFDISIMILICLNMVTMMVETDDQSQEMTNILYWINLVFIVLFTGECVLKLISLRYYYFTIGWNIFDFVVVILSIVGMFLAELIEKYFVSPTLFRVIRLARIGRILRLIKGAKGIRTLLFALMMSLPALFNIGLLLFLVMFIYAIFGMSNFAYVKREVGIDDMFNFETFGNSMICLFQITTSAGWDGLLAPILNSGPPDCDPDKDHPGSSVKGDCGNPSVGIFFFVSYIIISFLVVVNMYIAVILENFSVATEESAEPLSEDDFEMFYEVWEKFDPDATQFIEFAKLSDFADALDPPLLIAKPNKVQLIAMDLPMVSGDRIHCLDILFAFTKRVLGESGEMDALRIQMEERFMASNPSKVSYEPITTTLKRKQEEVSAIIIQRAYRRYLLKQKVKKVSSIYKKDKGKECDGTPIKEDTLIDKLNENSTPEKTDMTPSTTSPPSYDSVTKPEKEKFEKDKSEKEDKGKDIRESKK
smiles,measurement,setting,value
CSCC[C@@H]1NC(=O)CNC(=O)[C@H](CCC(=O)O)NC(=O)[C@@H]2CSSC[C@H](NC(=O)[C@H](Cc3ccc(O)cc3)NC(=O)[C@@H]3CCCN3C(=O)CN)C(=O)N[C@@H](CCC(N)=O)C(=O)N[C@@H](CCCCN)C(=O)N[C@@H](Cc3c[nH]c4ccccc34)C(=O)N[C@@H](CCSC)C(=O)N[C@@H](CCC(N)=O)C(=O)N[C@@H]([C@@H](C)O)C(=O)N[C@H]3CSSC[C@H](NC(=O)[C@H](C(C)C)NC1=O)C(=O)N[C@@H](CCCNC(=N)N)C(=O)N[C@@H](CC(C)C)C(=O)N[C@@H](Cc1c[nH]c4ccccc14)C(=O)N[C@H](C(=O)N[C@@H](CCCCN)C(=O)N[C@@H](CCCCN)C(=O)N[C@@H](CCCCN)C(=O)N[C@@H](CC(C)C)C(=O)N[C@@H](CC(C)C)C(=O)O)CSSC[C@H](NC(=O)[C@H](CCCCN)NC(=O)[C@H](CCCNC(=N)N)NC(=O)[C@H](CCC(=O)O)NC(=O)[C@H](CO)NC(=O)[C@H](CC(=O)O)NC3=O)C(=O)N2 [JNJ63955918],Emax,hNav1.2 [1],50 ± 18.5%
same,Emax,hNav1.7 [2],79.1 ± 3.4%
same,gross motor normal,"[3]; 0.5 μg/10 μl IT, 1 h post dose",6/6
same,normal proprioception,"[3]; 0.5 μg/10 μl IT, 1 h post dose",6/6
same,gross motor normal,[3]; [14],6/6
same,normal proprioception,[3]; [14],6/6
same,abrasions at euthanasia,"[3]; 0.5 μg/10 μl IT, first 2 animals not assessed",0/4
same,gross motor normal,"[3]; 2.5 μg/10 μl IT, 1 h post dose",6/6
same,normal proprioception,"[3]; 2.5 μg/10 μl IT, 1 h post dose",6/6
same,gross motor normal,[3]; [15],6/6
same,normal proprioception,[3]; [15],6/6
same,excessive scratching leading to upper body skin abrasion (animals affected),"[3]; 2.5 μg/10 μl IT, blinded repeat study",2 of 4
same,abrasions at euthanasia,[3]; [16],2/4
same,scratching,[3]; [16],2/4
same,duration of muscle weakness,[3]; 7.5 μg/10 μl IT,< 1 h
same,incidence of mild reversible muscle weakness,[3]; 7.5 μg/10 μl IT,approximately 50%
same,scabbing,"[3]; IT dose range finding, in words",Scabbing on face/neck/shoulders was observed in some rats
same,motor impairment,"[3]; IT doses above 7.5 μg/10 μl, in words",Dose related motor impairment became more obvious and the duration of the effects was longer
same,tolerability,"[3]; IT doses up to 5 μg/10 μl, in words",well tolerated with no detectable abnormal behaviors
same,in-vivo safety window,"[3]; rat, in vivo",7–16 fold
same,therapeutic margin vs ziconotide,"[3]; rat, in vivo",greater than that of ziconotide
same,"maximum tolerated dose (MTD), IT",[3]; rat,5 μg/10 μl
same,lesions to the face and shoulders,[3]; in words,often noticed
same,Emax,hNav1.4 [4],100%
same,scratching / behavioral abnormalities,"[5]; 1.4 mg/100 μl peri-sciatic, in words",Scratching was observed in some animals but no other behavioral abnormalities were noted
same,"mentation BAR (bright, alert and responsive)",[5]; 15 min post dose,7/9
same,normal corneal reflex,[5]; 15 min post dose,9/9
same,normal pinna reflex,[5]; 15 min post dose,9/9
same,normal placing stepping,[5]; 15 min post dose,9/9
same,scratching,[5]; 15 min post dose,0/9
same,"mentation BAR (bright, alert and responsive)",[5]; 30 min post dose,4/9
same,normal corneal reflex,[5]; 30 min post dose,9/9
same,normal pinna reflex,[5]; 30 min post dose,9/9
same,normal placing stepping,[5]; 30 min post dose,9/9
same,scratching,[5]; 30 min post dose,1/9
same,"mentation BAR (bright, alert and responsive)",[5]; 60 min post dose,5/9
same,normal corneal reflex,[5]; 60 min post dose,9/9
same,normal pinna reflex,[5]; 60 min post dose,9/9
same,normal placing stepping,[5]; 60 min post dose,9/9
same,scratching,[5]; 60 min post dose,2/9
same,"mentation BAR (bright, alert and responsive)",[5]; 120 min post dose,6/9
same,normal corneal reflex,[5]; 120 min post dose,9/9
same,normal pinna reflex,[5]; 120 min post dose,9/9
same,normal placing stepping,[5]; 120 min post dose,9/9
same,scratching,[5]; 120 min post dose,2/9
same,"mentation BAR (bright, alert and responsive)",[5]; 240 min post dose,8/9
same,normal corneal reflex,[5]; 240 min post dose,9/9
same,normal pinna reflex,[5]; 240 min post dose,9/9
same,normal placing stepping,[5]; 240 min post dose,9/9
same,scratching,[5]; 240 min post dose,1/9
same,"mentation BAR (bright, alert and responsive)",[5]; 24 h post dose,9/9
same,normal corneal reflex,[5]; 24 h post dose,9/9
same,normal pinna reflex,[5]; 24 h post dose,9/9
same,normal placing stepping,[5]; 24 h post dose,9/9
same,gross motor deficits,"[5]; 2.5 mg/100 μl peri-sciatic, in words",absence of any gross motor deficits
same,"tolerability, peri-sciatic","[5]; up to 2.5 mg/100 μl, in words",well tolerated
same,Emax,hNav1.1 [6],100%
same,IC50,"hNav1.6 [7]; holding −120 mV, test −10 mV, 0.1% BSA, 22–24 °C, read-out: pIC50 hNav1.6 (converted)",1000 nM
same,Emax,hNav1.6 [7]; read-out: Fitted Emax hNav1.6,100%
same,body weight gain vs vehicle,[8],gained weight at the same rate
same,motor or other behavioral abnormalities,[8],No motor or other behavioral abnormalities were observed
same,scabbing,[8],"Some scabbing on the face, shoulders, hind limbs and tail"
same,Emax,hNav1.4 [9],100%
same,Emax,hNav1.6 [10],100%
same,IC50,"hNav1.1 [11]; holding −120 mV, test −10 mV, 0.1% BSA, 22–24 °C, read-out: pIC50 hNav1.1 (converted)",10000 nM
same,Emax,hNav1.1 [11]; read-out: Fitted Emax hNav1.1,100%
same,Emax,hNav1.2 [12],27.6 ± 7.3%
same,Emax,hNav1.7 [13],94.8 ± 3.3%
"CSCC[C@@H]1NC(=O)CNC(=O)[C@H](CCC(=O)O)NC(=O)[C@@H]2CSSC[C@H](NC(=O)[C@@H](N)Cc3ccc(O)cc3)C(=O)N[C@@H](CCC(N)=O)C(=O)N[C@@H](CCCCN)C(=O)N[C@@H](Cc3c[nH]c4ccccc34)C(=O)N[C@@H](CCSC)C(=O)N[C@@H](Cc3c[nH]c4ccccc34)C(=O)N[C@@H]([C@@H](C)O)C(=O)N[C@H]3CSSC[C@H](NC(=O)[C@H](C(C)C)NC1=O)C(=O)N[C@@H](CCCNC(=N)N)C(=O)N[C@@H](CC(C)C)C(=O)N[C@@H](Cc1c[nH]c4ccccc14)C(=O)N[C@H](C(=O)N[C@@H](CCCCN)C(=O)N[C@@H](CCCCN)C(=O)N[C@@H](CCCCN)C(=O)N[C@@H](CC(C)C)C(=O)N[C@@H](Cc1c[nH]c4ccccc14)C(=O)O)CSSC[C@H](NC(=O)[C@H](CCCCN)NC(=O)[C@H](CCCNC(=N)N)NC(=O)[C@H](CCC(=O)O)NC(=O)[C@H](CO)NC(=O)[C@H](CC(=O)O)NC3=O)C(=O)N2 [ProTX-II, reference compound]",Emax,hNav1.5,100%
same,abnormal proprioception of hind paws,[3]; [17],2/7
same,abnormal stepping,[3]; [17],2/7
same,flaccidity,[3]; [17],1/7
same,hindlimb weakness,[3]; [17],2/7
same,abnormal proprioception of hind paws,[3]; [18],0/7
same,abnormal stepping,[3]; [18],0/7
same,flaccidity,[3]; [18],0/7
same,hindlimb weakness,[3]; [18],2/7
same,abrasions and scabs,[3]; [19],"Abrasions and scabs to the face, neck, and shoulders were observed in some"
same,effect on motor function,[3]; [19],without any severe effect on motor function
same,motor effects just above efficacious dose,"[3]; rat, IT, in words",exerts profound motor effects at doses just above the efficacious analgesic dose
same,motor effects above maximum tolerated IT dose,"[3]; rat, higher than 2 μg/10 μl, in words","dose-related motor abnormalities that progressed from transient rear weakness, to paralysis of both the hind and forelimbs, slowing of respiration and death"
same,"maximum tolerated dose (MTD), IT",[3]; rat,2 μg/10 μl
same,lesions to the face and shoulders,[3]; in words,often noticed
same,ambulation,"[5]; 250 μg/100 μl peri-sciatic, in words",No effect upon ambulation
same,"tolerability, peri-sciatic","[5]; 250 μg/100 μl, in words",well tolerated at the highest dose tested
same,Emax,hNav1.1 [6],100%
same,Emax,hNav1.4 [9],100%
same,IC50,"hNav1.6 [10]; CHO cells, holding −60 mV, 0.1% BSA, ~22 °C, ± SEM, read-out: pIC50 hNav1.6 (converted)",31.6 nM
same,Emax,hNav1.6 [10],100%
same,Emax,hNav1.3,100%
same,Emax,hNav1.2 [12],100%
